For the assay, the system named is spontaneous recurrent seizures. Description: "spontaneous recurrent seizures" (SRS) model of epilepsy. The format is in vivo. Particulars: rat, 20 mg/kg/day i.v. for 10 day. As to the method: The “spontaneous recurrent seizures” (SRS) model of epilepsy is used to evaluate candidate compounds in a model for Phase 1 epileptogenesis (see, e.g., Mello, E. et al., Epilepsia (1993) 34:985; Cavalheiro, J. et al., Epilepsia (1991) 32:778). In the SRS model, an adult male Sprague-Dawley rat (c. 260 g) is given kainic acid by injection ([…].). Within 25 minutes, the animal enters status epilepticus, which typically lasts for 15-20 hours (although about 10% of animals die at this stage). The rat is allowed to spontaneously recover and is given food and water ad lib. and maintained on a 12 hour light/dusk cycle. Beginning on about day 13-15, the rats develop spontaneous recurrent seizures, which occur at the rate of about 4-5 per week. The rats are videotaped 8 hours per day, and the videotapes are reviewed for behavioral seizures (including head nodding, forelimb clonus, and rearing), which are counted. The animals are watched for a few weeks to a few months (2 weeks to three months), permitting evaluation of a sufficient number of seizures. An experimental compound for evaluation can be administered at either of two times: Time 1, on Day 1, after the cessation of status epilepticus but before the onset of SRS; or Time 2, on Day 30, when the rats have been experiencing SRS for about two weeks. […]

As to `O=C1NC(=O)C(c2ccccc2)(c2ccccc2)N1` [phenytoin], the “preventing the onset of seizures” value (administered at Time 1 (Day 1, before onset of SRS)) is recorded as “ineffective”. For the same molecule, under “administered at Time 2 (Day 30, established SRS)”, the “effective at decreasing seizure frequency by 50% or more” value was 75%.

For the origin of these results see US20050038000A1, “Methods and compositions for the treatment of amyloid-and epileptogenesis-associated diseases” (priority 2003, published 2005).
